Where a name gives a salt, the structure may show the parent alone. Read-outs that look alike come from different tables or passages of the source.
Key:
mouse neutrophils = assay: ROS inhibition in mouse neutrophils; type: cell-based; conditions: average of several experiments; for <90% ROS Inhibition: concentration
Description: (§1) PMA was again used to stimulate ROS production in neutrophils and the effects of the drugs were monitored at increasing concentration levels.

human neutrophils [1] = assay: ROS production by PMA-stimulated purified human neutrophils; type: cell-based; conditions: for ROS production in the presence of PMA: 10 uM concentration; for ROS production in the presence of PMA / IC50 / <90% ROS Inhibition: human neutrophils; for IC50 / <90% ROS Inhibition: PMA stimulated, average of several experiments; for IC50: read-out: ROS Inhibition IC50; for ROS inhibitor effectiveness over 100 nm to 10 uM: PMA stimulated human neutrophils; for <90% ROS Inhibition: concentration
Experimental: Following blood withdrawal, blood was overlaid on 3% dextran in 0.9% NaCl in a 1:1 ratio and left at RT for 25 min to allow erythrocyte sedimentation. Residual RBCs were lysed by adding water for 30 sec and stopped by adding 2.5% BSA/5×PBS. WBCs were then diluted in 0.5% BSA/1×PBS and total number of cells was counted. Purification of pure neutrophils (HDNs) was done by overlaying blood after RBC sedimentation in a 1:1 ratio on Histopaque-1077. After 30 min centrifugation at 400 g, pure neutrophils were found at the bottom of the tube (pellet). Mononuclear cells (LDF—low density fraction) settle between the Histopaque-1077 and the 0.9% saline.
(§2) A high-throughput screen was performed to find molecules that inhibit ROS production by neutrophils. Extracted human neutrophils were purified and kept in culture. The cells were then exposed to various drugs and ROS production was monitored over time. Compounds that also scavenged hydrogen peroxide (H2O2) and/or lowered neutrophil ATP levels (reflecting toxicity) were removed. The top hits from the screen were selected for further analysis.
Neutrophils not exposed to PMA were used as a negative control and neutrophils exposed to only PMA were used as a positive control.
as §1

human neutrophils [2] = assay: High-throughput screen for molecules that inhibit ROS production by neutrophils (PMA and fMLP stimulation); type: cell-based
Experimental: as §2, with “analysis. 160 basal hits were tested for their ability to inhibit neutrophil ROS production. 64 molecules were able to inhibit ROS production in the presence of PMA activation. 67 molecules were able to inhibit ROS production in the presence of N-Formylmethionine-leucyl-phenylalanine (fMLP). Of those 47 molecules were able to inhibit ROS production by both stimulation methods.” for “analysis.”

[3] = system: whole blood samples from healthy human subjects; assay: ROS levels in whole blood samples from healthy human subjects, without or with PMA; type: cell-based; conditions: for reduction in ROS in whole blood treated with PMA: higher dose (5 uM)
Experimental: A high and low concentration were tested for each compound. […] Next, the compounds were tested on whole blood treated with PMA.

[4] = system: neutrophils isolated from blood; assay: Neutrophil survival by FACS (Annexin V and PI double positive = dead); type: cell-based; conditions: 2 hours culture, drugs at 1 uM
Experimental: To test this hypothesis, neutrophils isolated from blood were cultured with the various drugs (concentration 1 uM) for 2 hours and then neutrophil survival was monitored by FACS. Cells that were double positive for Anexin V staining and PI staining were considered dead.

LPS treated mice = assay: ROS in the lungs of LPS treated mice (lung inflammation model); type: in vivo, mouse
Experimental: (5B) Bar graph of relative ROS levels in the lungs of LPS treated mice, LPS treated mice administered free Stelazine, Stelazine loaded naked liposomes and Stelazine loaded targeting-peptide decorated liposomes. (5C) Images of ROS levels in LPS treated lungs administered various compositions of Stelazine and/or naked or peptide-decorated liposomes (referred to as “TENN”). 4 hours following treatment with the described molecules, animals were injected with luminol and ROS in the lungs was quantified using IVIS.
Mice were given 150 ug LPS by inhalation and left for 2 days. […] The LPS was inhaled on Day 0, and then the dosing of the drugs was performed in the evening of day 1 and the morning of day 2. Three different formulations of Stelazine were tested by IV administration: free Stelazine administered in PBS, Stelazine loaded into liposomes in PBS, and Stelazine loaded into liposomes decorated with neutrophil targeting peptides in PBS.

[5] = Circulating ALT levels in mice after drug administration; type: in vivo, mouse; conditions: 48 hours after drug administration
Experimental: One of the benefits of targeting of these drugs directly to neutrophils is to decrease their unwanted side effects. As mentioned early, many of these compounds have known side effects with respect to neutrophil differentiation in the bone marrow. Targeting to mature neutrophils decreases this unwanted side effect. To test if side effects are indeed decreased liver enzyme levels were measured in the mice after administration of free Stelazine and neutrophil targeted Stelazine. […] It is thus clear that neutrophil targeting is particularly beneficial for the selected compounds.

Structure (SMILES)	IC50 (mouse neutrophils; Neutrophil) [nM]	IC50 (human neutrophils [1]; Neutrophil) [nM]	<90% ROS Inhibition (mouse neutrophils) [µM]	ROS production in the presence of PMA (human neutrophils [1])	<90% ROS Inhibition (human neutrophils [1]) [µM]	further results
CCN1CCN(Cc2ccc(Nc3ncc(F)c(-c4cc(F)c5nc(C)n(C(C)C)c5c4)n3)nc2)CC1 [Abemaciclib]	1500	1000	5	more effective	2	ROS inhibitor effectiveness over 100 nm to 10 uM (human neutrophils [1]): most effective ROS inhibitors
CN(C)CCC=C1c2ccccc2CCc2ccccc21 [Amitriptyline]						ROS inhibition in the screen (human neutrophils [2]): inhibited ROS production
CN(C)CCCN1c2ccccc2CCc2ccc(Cl)cc21 [Clomipramine]			7	more effective	5	ROS inhibition in whole blood treated with PMA ([3]; 5 uM): less strong effect; reduction in ROS in whole blood treated with PMA [3]: > 50%; ROS inhibitor effectiveness over 100 nm to 10 uM (human neutrophils [1]): most effective ROS inhibitors
CC(C)(C)C(=O)/C(=C\c1cccc([N+](=O)[O-])c1)n1cncn1 [Nexinhib]					5	IC50 (mouse neutrophils): 8000 nM; ROS inhibition in whole blood treated with PMA ([3]; 5 uM): less strong effect; reduction in ROS in whole blood treated with PMA [3]: > 50%; IC50 (human neutrophils [1]): 1500 nM
COC(=O)C1=C(C)NC(C)=C(C(=O)OCC(C)C)C1c1ccccc1[N+](=O)[O-] (centres unmarked) [Nisoldipine]				more modest reduction		
CCCCCCCCCCCCCC(=O)O[C@@H]1[C@@H](C)[C@@]2(O)[C@@H](C=C(CO)C[C@]3(O)C(=O)C(C)=C[C@@H]23)[C@@H]2C(C)(C)[C@]12OC(C)=O [PMA, Phorbol 12-myristate 13-acetate]						increase in cell death as compared to control [4]: ~50%
CC(=O)c1c(C)c2cnc(Nc3ccc(N4CCNCC4)cn3)nc2n(C2CCCC2)c1=O [Palbociclib]				strongly reduced ROS production		
CN(C)C(=O)c1cc2cnc(Nc3ccc(N4CCNCC4)cn3)nc2n1C1CCCC1 [Ribociclib]				more modest reduction		
CC(C)(C)C(=O)Oc1ccc(S(=O)(=O)Nc2ccccc2C(=O)NCC(=O)O)cc1 [Sivelestat]						increase in cell death as compared to control [4]: < 6%

Continued, in another order:

IC50 (mouse neutrophils; Neutrophil) [nM]	IC50 (human neutrophils [1]; Neutrophil) [nM]	Structure (SMILES)	<90% ROS Inhibition (mouse neutrophils) [µM]	ROS production in the presence of PMA (human neutrophils [1])	<90% ROS Inhibition (human neutrophils [1]) [µM]	further results
2500		CN(C)C/C=C/C(=O)Nc1cc2c(Nc3ccc(F)c(Cl)c3)ncnc2cc1O[C@H]1CCOC1 [Afatanib Maleate, Afatinib Maleate]	8			
	4000	CN(C)C/C=C/C(=O)Nc1cc2c(Nc3ccc(F)c(Cl)c3)ncnc2cc1O[C@H]1CCOC1 [Afatinib]		more modest reduction	9	
150	200	COc1cc(Nc2c(C#N)cnc3cc(OCCCN4CCN(C)CC4)c(OC)cc23)c(Cl)cc1Cl [Bosutinib]	1.5	more effective	0.75	ROS inhibition in whole blood treated with PMA ([3]; 1 uM): this inhibition was quickly lost; ROS inhibition in whole blood treated with PMA ([3]; 5 uM): highly effective at ROS inhibition; ROS inhibitor effectiveness over 100 nm to 10 uM (human neutrophils [1]): most effective ROS inhibitors
2000	2500	CCCCOc1ccc(C(=O)CCN2CCCCC2)cc1 [Dyclonine]	5		7	ROS levels relative to unstimulated neutrophils (human neutrophils [1]; 10 μM): 44 % of negative control cells
2500	1000	CN1CCN(CCCN2c3ccccc3Sc3ccc(C(F)(F)F)cc32)CC1 [Stelazine, Trifluoperazine]	4	more effective	4	ROS levels in LPS treated lungs, luminol/IVIS imaging (LPS treated mice; 4 hours following treatment): had an effect on ROS levels; reduction in ROS in the lungs as compared to the untreated control (LPS treated mice; IV, 48 hours after LPS administration): ~50%; alanine aminotransferase (ALT) levels in the blood [5]: increased alanine aminotransferase (ALT) levels in the blood; ROS inhibitor effectiveness over 100 nm to 10 uM (human neutrophils [1]): most effective ROS inhibitors

Reference: US20240358711A1, “COMPOUNDS FOR NEUTROPHIL ROS INHIBITION” (IMMUNYX PHARMA LTD., priority 2021, published 2024)
